Molecules are shown by their SMILES. Read-outs that look alike come from different tables or passages of the source.

Assay [1] has as its target His6-TEV-PDGFRβ (557-1016) (Homo sapiens (Human), UniProt P09619). The experiment in a line: PDGFRβ HTRF Assay. To be noted: read-out: PDGFR HTRF IC50. The class given is biochemical. The method, boiled down: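 HTRF KinEASE-TK readout (665/620 nm ratio) of TK-biotin substrate phosphorylation by His-tagged PDGFRβ kinase domain. Enzyme and inhibitor preincubated 30 min, then ATP/substrate added for 3 h at room temperature before 60 min EDTA quench/detection.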
Background: TR-FRET usually uses a lanthanide donor and a delayed reading to cut background.

A further assay deals with PDGFRβ (Rattus norvegicus (Rat), UniProt Q05030). Nature of the assay: PDGFRβ Cellular Assay (PDGFRb P-Y751 HTRF in A10 cells stimulated with PDGF-BB). The class given is cell-based. Put shortly:
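Phospho-Y751 PDGFRβ was measured by HTRF in lysates of A10 rat cells. Cells received compound for 3 hours before PDGF-BB stimulation (100 ng/mL working stock).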

PDGFRβ, sequence (Q05030 32-1097): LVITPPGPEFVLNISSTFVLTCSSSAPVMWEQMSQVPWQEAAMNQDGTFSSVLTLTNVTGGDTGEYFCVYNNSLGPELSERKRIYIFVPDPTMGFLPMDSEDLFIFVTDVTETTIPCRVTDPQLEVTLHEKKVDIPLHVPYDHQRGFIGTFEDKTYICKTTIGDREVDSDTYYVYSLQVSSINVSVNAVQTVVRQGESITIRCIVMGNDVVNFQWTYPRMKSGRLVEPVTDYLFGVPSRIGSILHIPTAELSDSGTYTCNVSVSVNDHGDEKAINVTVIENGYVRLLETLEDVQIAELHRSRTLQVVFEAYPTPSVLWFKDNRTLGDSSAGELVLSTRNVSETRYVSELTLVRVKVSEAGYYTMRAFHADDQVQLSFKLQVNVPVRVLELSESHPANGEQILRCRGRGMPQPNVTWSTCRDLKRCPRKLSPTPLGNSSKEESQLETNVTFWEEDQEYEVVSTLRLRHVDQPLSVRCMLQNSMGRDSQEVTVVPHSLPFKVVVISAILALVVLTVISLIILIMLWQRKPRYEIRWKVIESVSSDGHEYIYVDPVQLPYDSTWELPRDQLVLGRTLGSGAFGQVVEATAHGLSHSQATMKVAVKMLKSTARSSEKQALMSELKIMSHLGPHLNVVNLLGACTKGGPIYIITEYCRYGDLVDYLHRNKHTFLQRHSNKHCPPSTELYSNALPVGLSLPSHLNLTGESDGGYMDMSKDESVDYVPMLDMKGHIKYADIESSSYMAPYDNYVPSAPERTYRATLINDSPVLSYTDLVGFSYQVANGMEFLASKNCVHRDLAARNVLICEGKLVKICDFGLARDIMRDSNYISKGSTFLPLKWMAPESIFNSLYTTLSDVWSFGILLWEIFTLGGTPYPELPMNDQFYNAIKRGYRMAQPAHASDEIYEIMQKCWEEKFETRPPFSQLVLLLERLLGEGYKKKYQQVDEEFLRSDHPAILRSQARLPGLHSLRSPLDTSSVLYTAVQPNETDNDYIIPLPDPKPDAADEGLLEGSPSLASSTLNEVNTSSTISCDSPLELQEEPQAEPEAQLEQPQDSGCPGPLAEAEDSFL
His6-TEV-PDGFRβ (557-1016), sequence (P09619 557-1016): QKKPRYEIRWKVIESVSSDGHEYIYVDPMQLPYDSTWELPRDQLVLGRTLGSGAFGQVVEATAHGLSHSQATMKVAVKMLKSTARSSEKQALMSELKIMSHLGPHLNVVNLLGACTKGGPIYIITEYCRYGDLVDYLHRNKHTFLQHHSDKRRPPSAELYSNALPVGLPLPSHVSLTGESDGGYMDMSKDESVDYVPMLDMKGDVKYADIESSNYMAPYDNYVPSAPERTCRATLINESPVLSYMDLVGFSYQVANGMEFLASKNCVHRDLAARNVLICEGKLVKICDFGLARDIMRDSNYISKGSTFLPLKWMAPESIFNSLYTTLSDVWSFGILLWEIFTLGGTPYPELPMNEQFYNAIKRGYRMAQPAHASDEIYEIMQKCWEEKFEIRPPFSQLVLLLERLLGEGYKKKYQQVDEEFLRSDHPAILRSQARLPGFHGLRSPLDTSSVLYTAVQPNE

As usually defined, the IC50 is the concentration at which inhibition is half-maximal. As to `Cc1ncc(NC(=O)OC[C@@H]2CCCN2C)cc1NC(=O)c1cnn2cc(-c3cccc4c3cnn4C)sc12` [Example 257, (S)-(1-methylpyrrolidin-2-yl)methyl (6-methyl-5-(2-(1-methyl-1H-indazol-4-yl)pyrazolo[5,1-b]thiazole-7-carboxamido)pyridin-3-yl)carbamate], the 50% inhibitory concentration (IC50) in assay [1] worked out at 0.2 nM; at PDGFRβ (read-out: PDGFR Cellular IC50) it was 13.1 nM.

For `Cc1ncc(NC(=O)OC[C@@H]2CCCN2C)cc1NC(=O)c1cnn2cc(-c3cc[nH]c3)sc12` [Example 258, (S)-(1-methylpyrrolidin-2-yl)methyl (5-(2-(1H-pyrrol-3-yl)pyrazolo[5,1-b]thiazole-7-carboxamido)-6-methylpyridin-3-yl)carbamate], the half-maximal inhibitory concentration (IC50) in assay [1] came to 0.4 nM; on PDGFRβ (read-out: PDGFR Cellular IC50) it was 48.7 nM.

With `Cc1ncc(NC(=O)CN2CCCC2(C)C)cc1NC(=O)c1cnn2cc(-n3ncc4cccnc43)sc12` [Example 259, N-(5-(2-(2,2-dimethylpyrrolidin-1-yl)acetamido)-2-methylpyridin-3-yl)-2-(1H-pyrazolo[3,4-b]pyridin-1-yl)pyrazolo[5,1-b]thiazole-7-carboxamide], the IC50 in assay [1] was found to be 0.4 nM; at PDGFRβ (read-out: PDGFR Cellular IC50), 3.9 nM.

Consider `Cc1ncc(NC(=O)CCN2CCCC2(C)C)cc1NC(=O)c1cnn2cc(-n3ncc4cccnc43)sc12` [Example 260, N-(5-(3-(2,2-dimethylpyrrolidin-1-yl)propanamido)-2-methylpyridin-3-yl)-2-(1H-pyrazolo[3,4-b]pyridin-1-yl)pyrazolo[5,1-b]thiazole-7-carboxamide], for which the IC50 turned out to be 0.3 nM in assay [1] and 3.1 nM against PDGFRβ (PDGFR Cellular IC50).

As to `COCCn1cc(-c2cn3ncc(C(=O)Nc4cc(NC(=O)CN5CC(C)(C)C5)cnc4C)c3s2)cn1` [Example 261, N-(5-(2-(3,3-dimethylazetidin-1-yl)acetamido)-2-methylpyridin-3-yl)-2-(1-(2-methoxyethyl)-1H-pyrazol-4-yl)pyrazolo[5,1-b]thiazole-7-carboxamide], the values for the IC50 (in assay [1]; on PDGFRβ (read-out: PDGFR Cellular IC50)) were 0.4 nM and 4.2 nM, respectively.

With `Cc1ncc(NC(=O)CN2CC(C)(C)C2)cc1NC(=O)c1cnn2cc(-c3cnn(C4CS(=O)(=O)C4)c3)sc12` [Example 262, N-(5-(2-(3,3-dimethylazetidin-1-yl)acetamido)-2-methylpyridin-3-yl)-2-(1-(1,1-dioxidothietan-3-yl)-1H-pyrazol-4-yl)pyrazolo[5,1-b]thiazole-7-carboxamide], the IC50 in assay [1] is 0.5 nM; at PDGFRβ (read-out: PDGFR Cellular IC50), 36.9 nM.

For `Cc1ncc(NC(=O)CN2CC(C)(C)C2)cc1NC(=O)c1cnn2cc(-c3cnn(CC4COC4)c3)sc12` [Example 263, N-(5-(2-(3,3-dimethylazetidin-1-yl)acetamido)-2-methylpyridin-3-yl)-2-(1-(oxetan-3-ylmethyl)-1H-pyrazol-4-yl)pyrazolo[5,1-b]thiazole-7-carboxamide], the concentration for half-maximal inhibition (IC50) in assay [1] is 0.6 nM; at PDGFRβ (read-out: PDGFR Cellular IC50), 13.9 nM.

In the case of `Cc1ncc(NC(=O)CN2CC(C)(C)C2)cc1NC(=O)c1cnn2cc(-c3cnn(C4COC4)c3)sc12` [Example 264, N-(5-(2-(3,3-dimethylazetidin-1-yl)acetamido)-2-methylpyridin-3-yl)-2-(1-(oxetan-3-yl)-1H-pyrazol-4-yl)pyrazolo[5,1-b]thiazole-7-carboxamide], the figures for the IC50 (in assay [1]; on PDGFRβ (read-out: PDGFR Cellular IC50)) were 0.4 nM and 7.6 nM, respectively.

Take `Cc1ncc(NC(=O)CN2CC(C)(C)C2)cc1NC(=O)c1cnn2cc(-c3cnn(CS(C)(=O)=O)c3)sc12` [Example 265, N-(5-(2-(3,3-dimethylazetidin-1-yl)acetamido)-2-methylpyridin-3-yl)-2-(1-((methylsulfonyl)methyl)-1H-pyrazol-4-yl)pyrazolo[5,1-b]thiazole-7-carboxamide]: the IC50 in assay [1] amounted to 0.5 nM; at PDGFRβ (read-out: PDGFR Cellular IC50) it was 114 nM.

In the case of `Cc1ncc(NC(=O)CN2CC(C)(C)C2)cc1NC(=O)c1cnn2cc(-c3cnn(CC#N)c3)sc12` [Example 266, 2-(1-(cyanomethyl)-1H-pyrazol-4-yl)-N-(5-(2-(3,3-dimethylazetidin-1-yl)acetamido)-2-methylpyridin-3-yl)pyrazolo[5,1-b]thiazole-7-carboxamide], the results for the IC50 (in assay [1]; at PDGFRβ (read-out: PDGFR Cellular IC50)) were 0.7 nM and 36.2 nM, respectively.
